Results reported in PubChem BioAssay (NCI).
“And” between values parts separate entries of the source, which are not always exact repeats. Equal values may be shown once.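 Tested at 5 concentrations; 48 h exposure; 96-well plates; endpoints linearly interpolated, else capped at highest concentration. At the GI50, growth is halved. TGI is the concentration that stops growth completely.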

How the values were obtained:
Assay in all cases: growth of human tumour cells (NCI), 48 h
[1] = test system: SNB-75 CNS
[2] = test system: NCI/ADR-RES ovarian
[3] = test system: HL-60(TB) leukemia
[4] = test system: SK-MEL-2 melanoma
[5] = test system: CAKI-1 renal
[6] = test system: HCC-2998 colon
[7] = test system: NCI-H460 lung
[8] = test system: MDA-MB-231 breast
[9] = test system: OVCAR-3 ovarian
[10] = test system: HT29 colon

Compound	GI50 [1]	TGI [1] [µM]	GI50 [2] [µM]	TGI [2] [µM]	GI50 [3]	TGI [3]	GI50 [4] [µM]	TGI [4] [µM]	GI50 [5] [µM]	TGI [5] [µM]	GI50 [6] [µM]	TGI [6]	GI50 [7]	TGI [7]	GI50 [8] [µM]	TGI [8]	GI50 [9] [µM]	TGI [9] [µM]	GI50 [10] [µM]	TGI [10] [µM]
COc1c(O)cc2oc3cc(O)c(CC=C(C)C)c(O)c3c(=O)c2c1C/C=C(\C)CCC=C(C)C	3.58 µM	7.46	5.99	11.4	7.69 µM	17.7 µM	6.46	12.1	4.69	9.39	7.06	13.6 µM	5.66 µM	10.2 µM	5.61	11.2 µM	5.31	9.71	6.34	12.4
COc1cc(-c2cc(C(=O)Nc3nc4ccccc4s3)nc3cc(-c4ccccc4)nn23)cc(OC)c1OC	2.77 µM	16.1	19.6	> 100	–	–	11.2	27.7	53.7	> 100	> 100	> 100 µM	29.1 µM	> 100 µM	5.63	69.2 µM	13.3	52.1	–	–
CS(=O)(=O)c1ccc(Oc2nccc(-c3c(-c4ccc(F)cc4)ncn3C3CCNCC3)n2)cc1	> 25 µM	> 25	> 25	> 25	> 20.6 µM	> 25 µM	> 25	> 25	> 25	> 25	> 25	> 25 µM	> 25 µM	> 25 µM	> 25	> 25 µM	> 25	> 25	> 22.2	> 25
CCN(Cc1ccc(F)cc1F)c1ccc(CO)c(Cl)c1	12.8 µM	45.3	12.6	32	8.47 µM	38.1 µM	5.36	21.3	5.11	> 54.1	4.26	20.4 µM	0.259 µM	6.68 µM	12.1	25.5 µM	0.389	2.07	5.65	30.4
COc1ccc(/C=C/C(=O)/C=C(/C=C/c2ccc(OC)c(OC)c2)OB(F)F)cc1OC	1.02 µM	8.06	0.529	> 100	0.495 µM	3.64 µM	1.81	4.39	–	–	2.02	4.17 µM	1.68 µM	4.58 µM	0.621	4.08 µM	0.324	1.04	1.03	4.95
O=C1C(Cl)=C(Oc2ccccc2)C(=O)c2ccccc21	1.93 µM	12.9	7.75	37.9	2.54 µM	17.7 µM	6.56	19.4	1.8	4.03	4.28	15.9 µM	5.57 µM	23.1 µM	6.51	21.1 µM	1.83	3.42	3.09	12.3
COc1ccc2c(CN3CCC(CO)CC3)cc3cc4c(cc3c2c1)OCO4	0.474 µM	2	0.255	10.4	0.286 µM	1.72 µM	0.193	0.636	0.289	3.42	0.194	1.41 µM	0.143 µM	3.21 µM	1.35	12.3 µM	0.316	3.39	0.134	2.6
COc1ccc(-n2c(-c3ccc(NC(=O)CCCl)cc3)nnc2-c2cc(OC)c(OC)c(OC)c2)cc1	3.46 µM	> 14.3	4.55	> 14.3	1.9 µM	6.02 µM	3.01	7.16	–	–	3.05	7.07 µM	2.5 µM	7.33 µM	3.56	> 14.3 µM	2.58	7.78	3.03	11.2
C=C1C(=O)OC2C1C(OC(=O)/C(C)=C/C)CC(O)(CCl)C1C(OC(C)=O)C=C(C)C21O (stereo not drawn)	–	64.6	–	61	–	9.39 µM	–	32.5	–	17.7	–	31.9 µM	–	46.1 µM	–	38.1 µM	–	23.4	–	31.9
NCCCn1c2c(c3ccccc3c1=O)C(=O)c1cc3c(cc1-2)OCO3	–	1.72	1.05	4.43	0.117 µM	–	3.47	12.8	0.247	2.27	< 0.01	1.11 µM	0.0547 µM	12.6 µM	0.72	4.54 µM	0.766	3.85	0.17	1.35
COC(=O)c1ccc(-c2nc3cc(F)c(F)cc3nc2C#N)cc1	–	–	4.21	10.4	3.23 µM	9.51 µM	14.9	46.7	8.48	18.5	8.41	16.1 µM	9.86 µM	19.2 µM	1.57	6.87 µM	1.71	4.99	11.1	35.6
O=C1CC2(CCCc3sccc32)C(=O)N1 (stereo not drawn)	–	> 100	–	> 100	–	> 100 µM	–	> 100	–	> 100	–	> 100 µM	–	> 100 µM	–	> 100 µM	–	> 100	–	> 100
COc1ccc(/C=C\c2cc(OC)c(OC)c(OC)c2)cc1NC(=O)[C@@H](N)CO	< 0.0128 µM	> 66.7	0.0205	0.245	< 0.0178 µM	0.758 µM	0.0198	> 100	< 0.01	> 100	0.0199	> 100 µM	0.0321 µM	> 100 µM	0.0215	> 100 µM	< 0.0122	0.0415	< 0.0173	20.5
Cc1c2ncccc2c(C)c2c1[nH]c1ccc(O)cc12	7.45 µM and 15.2 µM	–	4.08	21	3.84 µM and 4.76 µM	10.5 µM and 15 µM	–	97.5	–	15.8	–	17.9 µM and 12.3 µM	2.78 µM and 1.6 µM	12.8 µM and 7.17 µM	7.26	19.2 µM and 54.4 µM	4.01	20	–	32.3
